In PubChem BioAssay AID434987 (Southern Research Specialized Biocontainment Screening …, 2010):
Calls of active or inactive are those of the source. No rule for the calls is given here.

Test system: M. tuberculosis H37Rv growth inhibition with meropenem
Assay: dose response, H37Rv, with and without meropenem (AID 434987);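 also: growth over 7 days at 37 °C before Alamar Blue read on day 9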
[1] = M. tuberculosis H37Rv growth inhibition, measured here: IC50 without meropenem
[2] = M. tuberculosis H37Rv growth inhibition, measured here: IC90 without meropenem
[3] = measured here: IC90 with meropenem

SMILES | IC50 | IC50 [1] [µM] | IC90 [2] [µM] | IC90 [3] [µM]
CSc1ncc(Cl)c(C(=O)Nc2cccc3ccccc23)n1 | 8.49 µM | 43.5 | > 100 | > 100
CCOC(=O)c1ccc(N2CN(C3CCCCC3)CNC2=S)cc1 | 35.4 µM | > 100 | > 100 | > 100
CC(C)c1ccc(/C=C/C(=O)NC2CCCCC2)cc1 | 38.2 µM | > 100 | > 100 | > 100
Cc1c(C(=O)Nc2cccnc2)oc2ccc(Br)cc12 | > 100 µM (inactive) | > 100 | > 100 | > 100
CCc1nc2scc(-c3cccs3)c2c(=O)o1 | > 100 µM (inactive) | > 100 | > 100 | > 100
O=C(Oc1c(-c2ccccc2)c(=O)n2c3c(cccc13)CC2)c1cccc([N+](=O)[O-])c1 | 3.97 µM | 30.5 | 85.1 | 62.3
Cn1c(/C=N/c2nc3ccccc3[nH]2)nc2ccccc21 | < 0.2 µM | 3.82 | > 100 | 4.17
O=C(Nc1ccc2nc3n(c(=O)c2c1)CCCC3)c1cc([N+](=O)[O-])ccc1F | 83.8 µM (inactive) | 83.1 | 90 | 91
Cc1ccc2nc(-c3ccc(NC(=S)NC(=O)C(C)C)cc3)sc2c1 | > 100 µM (inactive) | > 100 | > 100 | > 100
Cc1cccc(/C=N\NC(=O)c2csnn2)c1 | 39.5 µM | > 100 | > 100 | > 100
COc1cc2c(=O)n(Cc3ccco3)c(=O)n(CC(=O)c3cccc(Br)c3)c2cc1OC | > 100 µM (inactive) | > 100 | > 100 | > 100
CCOc1cc(/C=N/Nc2nc(-c3cccs3)c(NC(C)=O)s2)ccc1O | 42.4 µM (inactive) | > 100 | > 100 | > 100
CC(=O)Nc1cccc(/C(C)=N/NC(N)=S)c1 | 7.9 µM | > 100 | > 100 | 28.6
Cc1ccc(CSc2nccc(-c3c(C)nc4ccccn34)n2)cc1 | 7.91 µM | 22.2 | > 100 | > 100
CCCCCn1c(=O)c(C(=O)Nc2cnccn2)c(O)c2ccccc21 | 10.8 µM (inactive) | 13.7 | 16.4 | 13.8
O=C(Cc1ccccc1)NC(=S)Nc1ccc(N2CCCCC2)cc1 | > 100 µM (inactive) | > 100 | > 100 | > 100
COc1cc(OC)c2ccc(=O)oc2c1C(CC(=O)N1CCN(c2ccccc2)CC1)c1ccc2c(c1)OCO2 (stereo not given) | 91.1 µM (inactive) | > 100 | > 100 | > 100
CCOC(=O)CSc1nnc(NC(=O)c2cccc(S(=O)(=O)N3CCCCC3)c2)s1 | 23.8 µM (inactive) | 41 | > 100 | > 100
CCCCOc1ccccc1NC(=O)c1ccco1 | > 100 µM (inactive) | > 100 | > 100 | > 100
O=C(NCC(c1ccco1)N1CCc2ccccc21)c1ccc([N+](=O)[O-])cc1 (stereo not given) | > 100 µM (inactive) | > 100 | > 100 | > 100

SMILES | IC50 | IC50 [1] [µM] | IC90 [2] [µM] | IC90 [3] [µM]
O=C(Nc1nc2ccccc2n1CCN1CCCC1)C1CCCCC1 | 8.68 µM | 23.9 | 47.2 | 27.5
O=C(NN1C(=O)C2C(C1=O)C1C=CC2C12CC2)c1ccncc1 (stereo not given) | 12.3 µM | 55.9 | > 100 | 13.9
C=CCNCCCOc1ccc(Cl)cc1C(C)(C)C | 48.1 µM (inactive) | 58.2 | 72.3 | 52.6
COc1cc(NC(=S)NC(=O)c2cccs2)ccc1NC(=O)C(C)C | > 100 µM (inactive) | > 100 | > 100 | > 100
c1ccc(-c2noc(-c3cccc4ccccc34)n2)cc1 | 20.2 µM | > 100 | > 100 | > 100
Cc1nnc(SCC2=C(C(=O)O)N3C(=O)C(NC(=O)COc4ccc(F)cc4)C3SC2)s1 (stereo not given) | 1.74 µM | 99 | > 100 | 9.33
Cc1ccc2[nH]c(O)c(N=Nc3nc4ccccc4s3)c2c1 | 6.76 µM | > 100 | > 100 | > 100
O=C(c1csc2c1CCCC2)n1cccn1 | 49.4 µM (inactive) | 97.3 | > 100 | > 100
S=C(Nc1ccccc1Cl)N1CCCC(c2ccccc2)=N1 | > 100 µM (inactive) | 68.9 | 87.8 | > 100
O=c1[nH]c(/C=C/c2cccc(Br)c2)nc2ccccc12 | > 100 µM (inactive) | > 100 | > 100 | > 100
CCc1ccc(NC(=S)Nc2ccc3cn[nH]c3c2)cc1 | 23.9 µM | > 100 | > 100 | > 100
CC(/C=N/NC(=O)c1cc(C(C)(C)C)[nH]n1)=C\c1ccccc1 | > 100 µM (inactive) | > 100 | > 100 | > 100
O=C(Nc1nc(-c2ccc3c(c2)OCCO3)cs1)c1ccc(S(=O)(=O)N2CCCCC2)cc1 | > 100 µM (inactive) | > 100 | > 100 | > 100
O=C(CCN1C(=O)c2ccccc2S1(=O)=O)Nc1ccc(Cl)cc1 | > 100 µM (inactive) | > 100 | > 100 | > 100
CC/C(=N\NC(=O)c1ccc(N(C)C)cc1)c1ccccc1 | > 100 µM (inactive) | > 100 | > 100 | > 100
COC(=O)CNC(c1ccccc1Cl)c1cc(Br)ccc1NC(=O)CCN1CCOCC1 (stereo not given) | 19.8 µM | 49.1 | 53.7 | 34.3
CCCCCn1c(=O)c(C(=O)NCc2ccncc2)c(O)c2ccccc21 | 35.3 µM (inactive) | 81.4 | > 100 | > 100
O=C(NC1CCCCCCC1)c1ccc(Br)cc1 | > 100 µM (inactive) | > 100 | > 100 | > 100
COc1cccc(/C=N/NC(N)=S)c1OS(=O)(=O)c1ccccc1 | 19.2 µM | > 100 | > 100 | > 25
CCCCCCCN(C(=O)CCl)c1ccccc1C | 4.49 µM | 11.8 | 37.3 | 35.2

SMILES | IC50 | IC50 [1] [µM] | IC90 [2] [µM] | IC90 [3] [µM]
Cc1cc(Br)ccc1NC(=O)c1ccccc1-c1ccccc1 | 14.1 µM | > 100 | > 100 | > 100
CCCn1c2ccccc2c2nnc(SCC(=O)OCC)nc21 | 27.7 µM (inactive) | 29.1 | > 50 | > 100
Cc1nn(C)c(C)c1NC(=O)CCCSc1nc(-c2ccco2)cc(C(F)(F)F)n1 | > 100 µM (inactive) | > 100 | > 100 | > 100
CCOC(=O)C1CCN(C(=O)CCCCn2c(=O)[nH]c3ccccc3c2=O)CC1 | > 100 µM (inactive) | > 100 | > 100 | > 100
CCCn1nnnc1NC(=O)COc1ccc(Cl)cc1C | 12.4 µM (inactive) | 24.3 | 28.6 | 42.9
Nc1ccc(C(=O)O)c(O)c1 | 0.25 µM (inactive) | < 0.2 | 7.65 | 1.88
CCCCN(CC)S(=O)(=O)c1ccc(C(=O)Nc2nnc(CSC)o2)cc1 | 17.2 µM (inactive) | 25.2 | > 100 | 31.7
CC(=O)c1c(OC(=O)c2cccc(Cl)c2)c2ccccc2n1C | 29.5 µM (inactive) | 68.6 | > 100 | > 100
O=C(COC(=O)c1ccc([N+](=O)[O-])s1)NCc1ccc(F)cc1 | 37.9 µM (inactive) | 56.6 | > 100 | > 100
COc1ccc(/C=C2\N=C(SC)N(c3ccccc3OC)C2=O)cc1 | 18.1 µM | > 100 | > 100 | > 25
O=C(OCC(=O)N(Cc1ccccc1)C1CCS(=O)(=O)C1)c1cc2c(s1)CCCC2 (stereo not given) | 90.7 µM (inactive) | 94.2 | > 100 | > 100
CCOc1ccc2nc(SCC(=O)Nc3nonc3C)[nH]c2c1 | 32.8 µM | > 100 | > 100 | > 100
Cc1ccccc1/C=N\NC(=O)c1csnn1 | 21.6 µM | > 100 | > 100 | > 100
O=C(CCl)N(c1ccccc1)C1CCS(=O)(=O)C1 (stereo not given) | 5.77 µM | 18.2 | 55.6 | 13.9
CCN(CC)C(=O)C1CCCN(c2ccc([N+](=O)[O-])cc2/C=N/NC(=O)c2cccc([N+](=O)[O-])c2)C1 (stereo not given) | > 100 µM (inactive) | > 100 | > 100 | > 100
CSc1nnc(C)c(/C=C/Nc2ccc(Cl)cc2)n1 | 94 µM (inactive) | 94.5 | > 100 | > 100
CC1(C)CCN2CCC(C)(C)c3c(O)ccc1c32 | 34.7 µM (inactive) | 47.1 | 53 | 49.3
O=C(OCC(=O)N1CCc2ccccc21)c1ccc(Cl)nc1 | 22.8 µM (inactive) | 44 | > 100 | > 100
O=C(N/N=C/c1c(Cl)cccc1Cl)c1cccc(F)c1 | > 100 µM (inactive) | > 100 | > 100 | > 100
O=[N+]([O-])c1cc(Cl)cc(/C=N/NC(=S)Nc2cc(S(=O)(=O)N3CCOCC3)ccc2Cl)c1O | 6.3 µM | 18.2 | 30.5 | 29.3
